According to patent US5494933A, “Treatment” (Beecham-Wuelfing GmbH & Co. KG, priority 1986, dated 1996):

Assays:
[1] = system: heart rate, systolic left ventricular pressure, left ventricular dp/dt max and mean arterial blood pressure; assay: Haemodynamic profile in anaesthetized rats; format: in vivo, rat; conditions: for % effect of Dhr 20 on dp/dtmax: left ventricular
Excerpt: 2. Haemodynamic profile in anaesthetized rats.
The effect of compounds of the invention on heart rate, systolic left ventricular pressure, left ventricular dp/dt max and mean arterial blood pressure was investigated so as to obtain information on the anti-anginal potential of these compounds, by reducing the oxygen demand of the ischaemic heart.
**LVP = systolic left ventricular pressure
***BP = mean arterial blood pressure
^a = i.d. administration

[2] = system: coronary spasm; assay: Vasopressin test in anaesthetized rats (coronary vasodilating activity, coronary spasm); format: in vivo, rat; conditions: 0.6 g/kg i.d., vasopressin (Lysopressin) 1 I.U./kg i.v.
Experimental: 1. Coronary Vasodilating activity
a) Vasopressin test in anaesthetized rats
Vasopressin (Lysopressin: 1 I.U./kg) was administered intravenously in order to provoke coronary spasm (ST-segment elevation in the ECG).
The ability of test compounds to reduce coronary spasm is taken as a measure of their anti-anginal potential in spasm-induced angina pectoris. (Ref. Drug.Res. 33(11), 8,1117-1121 (1983)).

[3] = target: T1, coronary artery (Sus scrofa, UniProt A0A8W4FNC0); assay: Pig isolated coronary artery, Ca++-antagonistic activity
T1 construct: Coronary artery spirals were prepared; from tissue; host or cells: pig coronary artery spirals
T1 sequence (A0A8W4FNC0 1-2067): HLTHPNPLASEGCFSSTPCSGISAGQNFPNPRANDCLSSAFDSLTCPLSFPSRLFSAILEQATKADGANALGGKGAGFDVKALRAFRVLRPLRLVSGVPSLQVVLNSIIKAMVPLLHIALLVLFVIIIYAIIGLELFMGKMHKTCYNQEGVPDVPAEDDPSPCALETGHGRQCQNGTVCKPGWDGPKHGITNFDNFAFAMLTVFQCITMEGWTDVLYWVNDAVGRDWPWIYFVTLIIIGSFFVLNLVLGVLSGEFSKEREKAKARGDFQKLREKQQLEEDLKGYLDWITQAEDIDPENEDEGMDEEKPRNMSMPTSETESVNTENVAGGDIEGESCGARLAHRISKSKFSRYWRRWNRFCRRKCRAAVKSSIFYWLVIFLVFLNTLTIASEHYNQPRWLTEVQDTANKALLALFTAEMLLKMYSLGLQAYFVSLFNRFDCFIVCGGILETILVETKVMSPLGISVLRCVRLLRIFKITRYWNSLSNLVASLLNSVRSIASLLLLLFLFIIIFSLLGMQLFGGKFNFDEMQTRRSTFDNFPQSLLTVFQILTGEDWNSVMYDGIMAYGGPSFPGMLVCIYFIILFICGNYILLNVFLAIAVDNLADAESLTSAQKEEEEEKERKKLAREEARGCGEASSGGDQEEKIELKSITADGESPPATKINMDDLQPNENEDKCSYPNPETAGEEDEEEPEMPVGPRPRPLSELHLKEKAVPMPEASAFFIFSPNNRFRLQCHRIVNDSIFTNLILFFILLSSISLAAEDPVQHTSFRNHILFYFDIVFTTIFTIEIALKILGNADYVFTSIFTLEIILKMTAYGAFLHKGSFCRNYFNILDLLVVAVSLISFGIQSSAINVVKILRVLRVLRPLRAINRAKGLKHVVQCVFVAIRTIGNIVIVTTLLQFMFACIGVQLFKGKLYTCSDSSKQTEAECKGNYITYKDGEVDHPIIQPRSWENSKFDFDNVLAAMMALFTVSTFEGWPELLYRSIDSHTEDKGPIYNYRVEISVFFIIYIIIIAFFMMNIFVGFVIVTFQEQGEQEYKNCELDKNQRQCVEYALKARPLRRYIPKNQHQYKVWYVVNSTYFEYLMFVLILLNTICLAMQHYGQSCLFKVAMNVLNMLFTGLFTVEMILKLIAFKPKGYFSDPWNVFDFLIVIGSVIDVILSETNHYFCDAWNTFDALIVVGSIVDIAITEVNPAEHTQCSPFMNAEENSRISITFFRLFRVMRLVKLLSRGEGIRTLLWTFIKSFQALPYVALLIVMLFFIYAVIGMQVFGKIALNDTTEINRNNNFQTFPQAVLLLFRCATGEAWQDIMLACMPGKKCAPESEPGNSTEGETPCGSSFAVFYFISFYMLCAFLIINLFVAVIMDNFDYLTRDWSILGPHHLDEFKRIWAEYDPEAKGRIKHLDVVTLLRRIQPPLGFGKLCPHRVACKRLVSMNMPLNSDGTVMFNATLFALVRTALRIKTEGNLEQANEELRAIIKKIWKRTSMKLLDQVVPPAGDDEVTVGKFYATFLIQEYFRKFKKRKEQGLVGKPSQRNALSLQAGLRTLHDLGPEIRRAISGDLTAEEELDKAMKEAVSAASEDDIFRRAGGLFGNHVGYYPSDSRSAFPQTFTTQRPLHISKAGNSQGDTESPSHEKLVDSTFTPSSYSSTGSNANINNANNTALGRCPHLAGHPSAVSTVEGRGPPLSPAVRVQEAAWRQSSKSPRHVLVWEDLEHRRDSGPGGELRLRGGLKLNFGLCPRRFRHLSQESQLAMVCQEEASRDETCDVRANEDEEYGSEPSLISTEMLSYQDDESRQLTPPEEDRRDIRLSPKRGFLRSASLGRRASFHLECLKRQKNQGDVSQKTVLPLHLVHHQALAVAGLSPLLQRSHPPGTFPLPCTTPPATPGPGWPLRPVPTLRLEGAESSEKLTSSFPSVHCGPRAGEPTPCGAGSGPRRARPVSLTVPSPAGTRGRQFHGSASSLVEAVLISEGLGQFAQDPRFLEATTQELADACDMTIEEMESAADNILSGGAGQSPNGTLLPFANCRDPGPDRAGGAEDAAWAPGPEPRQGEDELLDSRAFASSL
Experimental: b) Pig isolated coronary artery
Coronary artery spirals were prepared and in lengths from 1.5 to 2 cm were incubated at 32.5° in Ca^++ -free Krebs-Henseleit solution containing tris buffer and 60 mM KCl. Ca^++ in concentrations ranging from 0.1 mM-7 mM was given every 10 min to produce a control dose-responsecurve. Following a wash out circle using EDTA, either placebo or drug was administered, and an equilibration time of 30 minutes allowed before the second dose-response curve was made. Dose-ratios were calculated at ED50 -levels, from these the log KB was calculated.

[4] = anaesthetized rat, i.v., at Dhr 20

Compound	i.v. duration of action on heart rate ([1]; anaesthetized rat, i.v.) [min]	% effect of Dhr 20 on dp/dtmax [1, 4] [%]	further results
CCCNC(=O)N(CCCN(C)CCc1ccc(OC)c(OC)c1)c1ccc(OC)c(OC)c1 [Example E27, (N-[3,4-Dimethoxyphenyl]-N-3-[N'-2-(3,4-dimethoxyphenyl)-ethyl-N'-methylamino]-propyl)-N"-n-propyl-urea]	5 to 10	-1	–
COc1ccc(CCN(C)CCCN(c2ccc(OC)c(OC)c2)c2ncc([N+](=O)[O-])cc2[N+](=O)[O-])cc1OC [Example E44, (N-[3,4-Dimethoxyphenyl]-N-3-[N'-2-(3,4-dimethoxyphenyl)-ethyl-N'-methyl-amino]-propyl)-3,5-dinitro-2-amino-pyridine]	10	-8	Dhr 20 (i.v. dose which reduces heart rate by ca. 20%) ([1]; anaesthetized rat, i.v.): 3.2; % effect of Dhr 20 on BP (mean arterial blood pressure) [1, 4]: -10%; % effect of Dhr 20 on LVP (systolic left ventricular pressure) [1, 4]: -6%
COc1ccc(CCN(C)CCCN(Cc2ccccc2[N+](=O)[O-])c2ccc(OC)c(OC)c2)cc1OC [Example E1, (N-[3,4-Dimethoxyphenyl]-N-3-[N'-2-(3,4-dimethoxyphenyl)-ethyl-N'-methylamino]-propyl)-(2-nitro)-benzylamine]	10	-3	activity against coronary spasm (ST-segment elevation in the ECG) [2]: active against coronary spasm
COc1ccc(CCN(C)CCCN(Cc2ccccc2)c2ccc(OC)c(OC)c2)cc1OC [Example E4, (N-[3,4-Dimethoxyphenyl]-N-3-[N'-2-(3,4-dimethoxyphenyl)-ethyl-N'-methylamino]-propyl)-benzylamine]	10	-12	Kb ([3]; pig coronary artery spirals, 60 mM KCl, Ca++ 0.1 mM-7 mM, 30 min equilibration, dose-ratios at ED50 levels): 1.41 µM; Ca++-antagonistic activity in coronary artery in vitro ([3]; pig coronary artery, from log KB): moderate to medium
COc1ccc(CCN(C)CCCN(C(=O)Oc2ccccc2)c2ccc(OC)c(OC)c2)cc1OC [Example E25, (N-[3,4-Dimethoxyphenyl]-N-3-[N'-2-(3,4-dimethoxyphenyl)-ethyl-N'-methylamino]-propyl)-phenyl-urethane]	10	-2	Dhr 20 (i.v. dose which reduces heart rate by ca. 20%) ([1]; anaesthetized rat, i.v.): 0.8; % effect of Dhr 20 on BP (mean arterial blood pressure) [1, 4]: -14%; % effect of Dhr 20 on LVP (systolic left ventricular pressure) [1, 4]: -10%
COc1ccc(CCN(C)CCCN(C(=O)c2ccc([N+](=O)[O-])cc2)c2ccc(OC)c(OC)c2)cc1OC [Example E50, (N-[3,4-Dimethoxyphenyl]-N-3-[N'-2-(3,4-dimethoxyphenyl)-ethyl-N'-methyl-amino]-propyl)-4-nitrobenzamide]	–	–	% effect of Dhr 20 on BP (mean arterial blood pressure) ([1]; rat, in vivo): -6%; duration of action on heart rate ([1]; rat, in vivo): > 90 min; % effect of Dhr 20 on BP (mean arterial blood pressure) ([1]; rat, in vivo, iv): -1%; % effect of Dhr 20 on LVP (systolic left ventricular pressure) ([1]; rat, in vivo, iv): -1%
COc1ccc(CCN(C)CCN(C(=O)NC(C)c2ccccc2)c2ccc(OC)c(OC)c2)cc1OC (stereo not shown) [Example E32]	10	-3	–
COc1ccc(CCN(C)CCCN(C(=O)NCc2ccccc2)c2ccc(OC)c(OC)c2)cc1OC [Example E30, (N-[3,4-Dimethoxyphenyl]-N-3-[N'-2-(3,4-dimethoxyphenyl)-ethyl-N'-methylamino]-propyl)-N"-benzylurea]	10	-20	–
CCCCOC(=O)N(CCCN(C)CCc1ccc(OC)c(OC)c1)c1ccc(OC)c(OC)c1 [Example E24, (N-[3,4-Dimethoxyphenyl]-N-3-[N'-2-(3,4-dimethoxyphenyl)-ethyl-N'methylamino]-propyl)-n-butyl-urethane]	10	-8	–
CCCCC(=O)N(CCCN(C)CCc1ccc(OC)c(OC)c1)c1ccc(OC)c(OC)c1 [Example E12, (N-[3,4-Dimethoxyphenyl]-N-3-[N'-2-(3,4-dimethoxyphenyl)-ethyl-N'-methylamino]-propyl)-pentanoic acid amide]	10	-6	–
COc1ccc(CCN(C)CCCN(Cc2ccc([N+](=O)[O-])cc2)c2ccc(OC)c(OC)c2)cc1OC [Example E6, (N-[3,4-Dimethoxyphenyl]-N-3-[N'-2-(3,4-dimethoxyphenyl)-ethyl-N'-methylamino]-propyl)-(4-nitro)-benzylamine]	60	-5	–
CCCCCN(CCCN(C)CCc1ccc(OC)c(OC)c1)c1ccc(OC)c(OC)c1 [Example E34, (N-[3,4-Dimethoxyphenyl]-N-3-[N'-2-(3,4-dimethoxyphenyl)-ethyl-N'-methylamino]-propyl)-n-pentylamine]	5 to 10	-10	–
COc1ccc(CCN(C)CCCN(C(=O)CCc2ccccc2)c2ccc(OC)c(OC)c2)cc1OC [Example E15, (N-[3,4-Dimethoxyphenyl]-N-3-[N'-2-(3,4-dimethoxyphenyl)-ethyl-N'-methylamino]-propyl)-(3-phenyl)propanoic acid amide]	10	-7	–
